Laboratory results as given in patent publication US20080249028A1, “Thyrotropin-Releasing Hormone Analogs and Method of Use” (Roger Williams Hospital, priority 2005, published 2008).

System: STZ-induced hyperglycemic rats
Experiment: Effect on STZ-induced hyperglycemia in rats (blood glucose level)
Format: in vivo, rat
Settings: for blood glucose level: STZ alone
Method: Male Sprague-Dawley rats (S.D. 180 g) were used in the experiments described below. The animals lived in individual metabolism cages with free access to food and water, while food and body weight were monitored daily. Peripheral blood samples (approximately 10 μl) were obtained from the tail vein of the animals. The blood glucose levels were measured by using Accu-Check Blood Glucose Meter (Roche Diagnosetics Corporation, IN). Beta cell function was evaluated once every two days over a 2-week period by an individual unaware of the treatment group. Animals were evaluated separately for blood glucose level, food intake and body weight. The endpoint check was pancreatic insulin content and pancreatic beta cell number.
Streptozotocin (STZ) was used to chemically induce damage in pancreatic function in order to create a hyperglycemic state in the animals. Eight-week old male Sprague-Dawley rats (200.00 g±10 g) were injected with STZ by intraperitoneal (i.p.) (65 mg/kg body weight (BW)) to create hyperglycemic animals (24 to 48 hours). Blood glucose levels were monitored daily. Onset of hyperglycemia occurred usually about 24 to 48 hours after STZ administration.
[…] the seventh day or on the third day after STZ administration, which allowed for examination of the TRH/TRH analog treatment and the degree of pancreatic damage in the diabetic animal. Again, food intake, body weight and blood glucose levels of each of the animals were monitored. When hyperglycemia was determined to be reversed by TRH/TRH analog, the animal was sacrificed. Blood samples were collected for insulin assay and the pancreas and muscles were collected for further pathological and physiological tests.
The figures shown in the tables are blood glucose levels (mg/dL; i.e., milligrams of glucose per deciliter of blood).

For `CN(N=O)C(=O)N[C@@H]1[C@@H](O)[C@H](O)[C@@H](CO)O[C@@H]1O` [S, streptozotocin, reference compound], the blood glucose level (Table 1, rats, Day 1) was 99.8 mg/dL, the blood glucose level (Table 1, rats, Day 2) was 313.2 mg/dL and the blood glucose level (Table 1, rats, Day 4) was 433.6 mg/dL. For the same compound, the blood glucose level (Table 1, rats, Day 9) was 320 mg/dL, the blood glucose level (Table 1, rats, Day 15) was 393.8 mg/dL and the blood glucose level (Table 1, rats, Day 22) was 463.8 mg/dL. The blood glucose level (Table 1, rats, Day 29) was 522.4 mg/dL, the blood glucose level (Table 1, rats, Day 39) was 537.2 mg/dL and the blood glucose level (Table 1, rats, Day 43) was 466.8 mg/dL. For the same compound, the blood glucose level (Table 1, rats, Day 50) was 485 mg/dL, the blood glucose level (Table 1, rats, Day 53) was 460 mg/dL and the blood glucose level (Table 1, rats, Day 56) was 453 mg/dL. It also gave a blood glucose level (Table 1, rats, Day 60) of 542 mg/dL, a blood glucose level (Table 1, rats, Day 64) of 482 mg/dL and a blood glucose level (Table 2, rats, Day 1) of 98 mg/dL. The blood glucose level (Table 2, rats, Day 4) was 103 mg/dL, the blood glucose level (Table 2, rats, Day 7) was 506 mg/dL and the blood glucose level (Table 2, rats, Day 11) was 494 mg/dL. For the same compound, the blood glucose level (Table 2, rats, Day 15) was 329 mg/dL, the blood glucose level (Table 2, rats, Day 18) was 432 mg/dL and the blood glucose level (Table 2, rats, Day 21) was 453 mg/dL. It also gave a blood glucose level (Table 2, rats, Day 25) of 480 mg/dL, a blood glucose level (Table 2, rats, Day 28) of 499 mg/dL and a blood glucose level (Table 2, rats, Day 32) of 529 mg/dL. For the same compound, the blood glucose level (Table 2, rats, Day 35) was 499 mg/dL, the blood glucose level (Table 2, rats, Day 39) was 508 mg/dL and the blood glucose level (Table 2, rats, Day 42) was 549 mg/dL. The blood glucose level (Table 2, rats, Day 46) was 536 mg/dL, the blood glucose level (Table 2, rats, Day 54) was 500 mg/dL and the blood glucose level (Table 2, rats, Day 61) was 582 mg/dL. For the same compound, the “onset of hyperglycemia after STZ administration” value (rats, STZ 65 mg/kg BW i.p.) was 24 to 48 h.
